Test results taken from patent US20160122320A1, “USEFUL COMBINATIONS OF MONOBACTAM ANTIBIOTICS WITH BETA-LACTAMASE INHIBITORS” (Basilea Pharmaceutica AG, priority 2005, published 2016).
Structures can show the parent of a compound that is named as a salt.

Key:
Assay in all cases: MIC, NCCLS broth microdilution
Format in all cases: cell-based
[1] = tested on: Acinetobacter sp. J2; conditions: Acinetobacter sp. J2; MIC of antibiotic compound 1 with the labelled bridged monobactam of formula II and clavulanate, 4 mg/L each
[2] = tested on: Pseudomonas aeruginosa MK1184; conditions: MIC of antibiotic compound 1 with the labelled bridged monobactam of formula II and clavulanate, 4 mg/L each
[3] = tested on: Pseudomonas aeruginosa 1973E; conditions: MIC of antibiotic compound 1 with the labelled bridged monobactam of formula II and clavulanate, 4 mg/L each
Summary of the method: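 Growth inhibition read by eye after overnight incubation (30° C. or 37° C.) defines the MIC, using NCCLS M7-A5 broth microdilution with ≤1% DMSO. When combinations were tested, only the formula I compound was titrated and each partner was fixed at 4 μg/mL.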

[4] = tested on: Enterobacter cloacae P99; conditions: MIC of antibiotic compound 1 with the labelled bridged monobactam of formula II and clavulanate, 4 mg/L each
[5] = tested on: Klebsiella pneumoniae CF104; conditions: MIC of antibiotic compound 1 with the labelled bridged monobactam of formula II and clavulanate, 4 mg/L each
[6] = tested on: Serratia marcescens S6; conditions: MIC of antibiotic compound 1 with the labelled bridged monobactam of formula II and clavulanate, 4 mg/L each
[7] = tested on: Stenotrophomonas malthophilia 1AC736; conditions: Stenotrophomonas malthophilia 1AC736; MIC of antibiotic compound 1 with the labelled bridged monobactam of formula II and clavulanate, 4 mg/L each

MIC of antibiotic at fixed inhibitor concentration (4 mg/L) [1] [µg/mL]	MIC of antibiotic at fixed inhibitor concentration (4 mg/L) [2] [µg/mL]	MIC of antibiotic at fixed inhibitor concentration (4 mg/L) [3] [µg/mL]	MIC of antibiotic at fixed inhibitor concentration (4 mg/L) [4] [µg/mL]	MIC of antibiotic at fixed inhibitor concentration (4 mg/L) [5] [µg/mL]	MIC of antibiotic at fixed inhibitor concentration (4 mg/L) [6] [µg/mL]	MIC of antibiotic at fixed inhibitor concentration (4 mg/L) [7] [µg/mL]	Structure (SMILES)
>32	>32	4	32	2	0.5	0.125	O=C(NCc1ccc(O)c(O)c1)N1CC[C@@H]2[C@H]1C(=O)N2S(=O)(=O)[O-].[Na+] [Compound 303, Sodium(1S,5R)-2-{N-[(3,4-dihydroxyphenyl)methyl]carbamoyl}-7-oxo-2,6-diazabicyclo[3.2.0]heptane-6-sulfonate]
>32	16	4	32	0.125	0.25	0.25	CCC(=O)c1cc[n+](CC(=O)N2CC[C@@H]3[C@H]2C(=O)N3S(=O)(=O)[O-])cc1 [Compound 117, (1S,5R)-7-oxo-2-[2-(4-propanoylpyridinium)acetyl]-2,6-diazabicyclo[3.2.0]heptane-6-sulfonate, inner salt]
2	>32	2	32	2	0.25	0.125	Nc1ccc(NC(=O)N2CC[C@@H]3[C@H]2C(=O)N3S(=O)(=O)[O-])cc1.[Na+] [Compound 327, Sodium(1S,5R)-2-[N-(4-aminophenyl)carbamoyl]-7-oxo-2,6-diazabicyclo[3.2.0]heptane-6-sulfonate]
>32	>32	8	8	4	0.5	0.125	NC(=O)CNC(=O)c1ccc(NC(=O)N2CC[C@@H]3[C@H]2C(=O)N3S(=O)(=O)[O-])cc1.[Na+] [Compound 312, Sodium(1S,5R)-2-(N-{4-[N-(carbamoylmethyl)carbamoyl]phenyl}carbamoyl)-7-oxo-2,6-diazabicyclo[3.2.0]heptane-6-sulfonate]
